Source: patent US8859574B2 (IRM LLC, priority 2008, dated 2014)

target: T1, IGF-1R Ba/F3 (Homo sapiens, UniProt P08069); assay: Ba/F3 Cell Viability Inhibition Assay (IGF-1R Ba/F3); assay type: cell-based, murine; details: Tel-TK transformed Ba/F3 cells, 48 hours, Britelite luminescence
T1 construct: fused on or other part: TEL- (or BCR-) IGF-1R in Ba/F3: the kinase part holds the site
Outline: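 A 48 h compound treatment at 37 °C (3750 cells/well) was followed by Britelite luminescence to measure viability. Cells were Ba/F3 pro-B cells, IL-3-independent via TEL-fused IGF-1R kinase transduction. A logistic fit gave IC50 as 50% viability relative to DMSO control.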

T1 sequence (P08069 999-1274 limits assumed): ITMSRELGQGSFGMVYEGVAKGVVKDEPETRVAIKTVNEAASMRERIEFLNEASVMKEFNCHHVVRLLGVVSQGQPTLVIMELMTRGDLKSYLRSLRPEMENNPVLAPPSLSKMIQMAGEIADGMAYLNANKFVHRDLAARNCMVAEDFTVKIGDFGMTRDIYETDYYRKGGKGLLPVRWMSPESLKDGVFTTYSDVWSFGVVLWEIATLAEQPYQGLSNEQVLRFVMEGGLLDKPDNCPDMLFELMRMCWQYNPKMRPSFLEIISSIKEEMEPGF

SMILES	IC50
Cc1cc(Nc2nc(Nc3cc(C)c(C4CCN(C(=O)c5nc(C(C)C)no5)CC4)cc3C)ncc2Cl)n[nH]1 [Compound 270, (4-(4-(5-chloro-4-(5-methyl-1H-pyrazol-3-ylamino)pyrimidin-2-ylamino)-2,5-dimethylphenyl)piperidin-1-yl)(3-isopropyl-1,2,4-oxadiazol-5-yl)methanone]	18 nM
CCc1cc(Nc2nc(Nc3cc(C)c(C4CCN(C)CC4)cc3F)ncc2Cl)n[nH]1 [Compound 271, 5-chloro-N4-(5-ethyl-1H-pyrazol-3-yl)-N2-(2-fluoro-5-methyl-4-(1-methylpiperidin-4-yl)phenyl)pyrimidine-2,4-diamine]	13 nM
Cc1cc(Nc2nc(Nc3cc(C)c(C4CCN(C5CCC5)CC4)cc3F)ncc2Cl)n[nH]1 [Compound 272, 5-chloro-N2-(4-(1-cyclobutylpiperidin-4-yl)-2-fluoro-5-methylphenyl)-N4-(5-methyl-1H-pyrazol-3-yl)pyrimidine-2,4-diamine]	50 nM
Cc1cc(Nc2nc(Nc3cc(C)c(C4CCNC(C)C4)cc3F)ncc2Cl)n[nH]1 (centres unmarked) [Compound 273, 5-chloro-N2-(2-fluoro-5-methyl-4-(2-methylpiperidin-4-yl)phenyl)-N4-(5-methyl-1H-pyrazol-3-yl)pyrimidine-2,4-diamine]	18 nM
Cc1cc(Nc2nc(Nc3cc(C)c(C4CCN(CC(N)=O)C(C)C4)cc3F)ncc2Cl)n[nH]1 (centres unmarked) [Compound 274, 2-(4-(4-(5-chloro-4-(5-methyl-1H-pyrazol-3-ylamino)pyrimidin-2-ylamino)-5-fluoro-2-methylphenyl)-2-methylpiperidin-1-yl)acetamide]	6 nM
Cc1cc(Nc2nc(Nc3cc(C)c(C4CCN(C)C(C)C4)cc3F)ncc2Cl)n[nH]1 (centres unmarked) [Compound 275, 5-chloro-N2-(4-(1,2-dimethylpiperidin-4-yl)-2-fluoro-5-methylphenyl)-N4-(5-methyl-1H-pyrazol-3-yl)pyrimidine-2,4-diamine]	9 nM
Cc1cc(Nc2nc(Nc3cc(C)c(C4CCN(C5CCNCC5)CC4)cc3F)ncc2Cl)n[nH]1 [Compound 276, N2-(4-(1,4′-bipiperidin-4-yl)-2-fluoro-5-methylphenyl)-5-chloro-N4-(5-methyl-1H-pyrazol-3-yl)pyrimidine-2,4-diamine]	437 nM
Cc1ccc(N2CCC(c3cc(F)c(Nc4ncc(Cl)c(Nc5cc(C)[nH]n5)n4)cc3C)CC2)nn1 [Compound 277, 5-Chloro-N2-(2-fluoro-5-methyl-4-(1-(6-methylpyridazin-3-yl)piperidin-4-yl)phenyl)-N4-(5-methyl-1H-pyrazol-3-yl)pyrimidine-2,4-diamine]	97 nM
Cc1cc(Nc2nc(Nc3cc(C)c(C4CCN(C5CCN(S(C)(=O)=O)CC5)CC4)cc3F)ncc2Cl)n[nH]1 [Compound 278, 5-chloro-N2-(2-fluoro-5-methyl-4-(1′-(methylsulfonyl)-1,4′-bipiperidin-4-yl)phenyl)-N4-(5-methyl-1H-pyrazol-3-yl)pyrimidine-2,4-diamine]	9 nM
Cc1cc(Nc2nc(Nc3cc(C)c(C4CCN(Cc5ccccn5)CC4)cc3F)ncc2Cl)n[nH]1 [Compound 281, 5-chloro-N2-(2-fluoro-5-methyl-4-(1-(pyridin-2-ylmethyl)piperidin-4-yl)phenyl)-N4-(5-methyl-1H-pyrazol-3-yl)pyrimidine-2,4-diamine]	87 nM
Cc1cc(Nc2nc(Nc3cc(C)c(C4CCN(C5=CC(=O)CC5)CC4)cc3F)ncc2Cl)n[nH]1 [Compound 282, 3-(4-(4-(5-Chloro-4-(5-methyl-1H-pyrazol-3-ylamino)pyrimidin-2-ylamino)-5-fluoro-2-methylphenyl)piperidin-1-yl)cyclopent-2-en-one]	48 nM
Cc1cc(Nc2nc(Nc3cc(C)c(C4CCN(C5CCC6(CC5)OCCO6)CC4)cc3F)ncc2Cl)n[nH]1 [Compound 283, N2-(4-(1-(1,4-dioxaspiro[4.5]decan-8-yl)piperidin-4-yl)-2-fluoro-5-methylphenyl)-5-chloro-N4-(5-methyl-1H-pyrazol-3-yl)pyrimidine-2,4-diamine]	16 nM
CCc1noc(CN2CCC(c3cc(F)c(Nc4ncc(Cl)c(Nc5cc(C)[nH]n5)n4)cc3C)CC2)n1 [Compound 284, 5-chloro-N2-(4-(1-((3-ethyl-1,2,4-oxadiazol-5-yl)methyl)piperidin-4-yl)-2-fluoro-5-methylphenyl)-N4-(5-methyl-1H-pyrazol-3-yl)pyrimidine-2,4-diamine]	33 nM
Cc1cc(Nc2nc(Nc3cc(C)c(C4CCN(Cc5noc(C(C)C)n5)CC4)cc3F)ncc2Cl)n[nH]1 [Compound 285, 5-chloro-N2-(2-fluoro-4-(1-((5-isopropyl-1,2,4-oxadiazol-3-yl)methyl)piperidin-4-yl)-5-methylphenyl)-N4-(5-methyl-1H-pyrazol-3-yl)pyrimidine-2,4-diamine]	68 nM
Cc1cc(Nc2nc(Nc3cc(C#N)c(C4CCN(C)CC4)cc3C)ncc2Cl)n[nH]1 [Compound 286, 5-(5-chloro-4-(5-methyl-1H-pyrazol-3-ylamino)pyrimidin-2-ylamino)-4-methyl-2-(1-methylpiperidin-4-yl)benzonitrile]	37 nM
COC(=O)c1cc(Nc2ncc(Cl)c(Nc3cc(C)[nH]n3)n2)c(C)cc1C1CCN(C)CC1 [Compound 287, methyl 5-(5-chloro-4-(5-methyl-1H-pyrazol-3-ylamino)pyrimidin-2-ylamino)-4-methyl-2-(1-methylpiperidin-4-yl)benzoate]	27 nM
Cc1cc(Nc2nc(Nc3cc(C)c(C4CCN(Cc5ccncc5)CC4)cc3F)ncc2Cl)n[nH]1 [Compound 288, 5-chloro-N2-(2-fluoro-5-methyl-4-(1-(pyridin-4-ylmethyl)piperidin-4-yl)phenyl)-N4-(5-methyl-1H-pyrazol-3-yl)pyrimidine-2,4-diamine]	93 nM
CC[N+]1([O-])CCC(c2cc(F)c(Nc3ncc(Cl)c(Nc4cc(C)[nH]n4)n3)cc2C)CC1 (centres unmarked) [Compound 289, 4-(4-(5-chloro-4-(5-methyl-1H-pyrazol-3-ylamino)pyrimidin-2-ylamino)-5-fluoro-2-methylphenyl)-1-ethylpiperidine-1-oxide]	370 nM
Cc1cc(Nc2nc(Nc3cc(C)c(C4CCN(C5CCC(=O)CC5)CC4)cc3F)ncc2Cl)n[nH]1 [Compound 290, 4-(4-(4-(5-chloro-4-(5-methyl-1H-pyrazol-3-ylamino)pyrimidin-2-ylamino)-5-fluoro-2-methylphenyl)piperidin-1-yl)cyclohexanone]	23 nM
Cc1cc(Nc2nc(Nc3cc(C)c(C4CCN(C5CCN(C(=O)OC(C)(C)C)C5)CC4)cc3F)ncc2Cl)n[nH]1 (centres unmarked) [Compound 291, tert-butyl 3-(4-(4-(5-chloro-4-(5-methyl-1H-pyrazol-3-ylamino)pyrimidin-2-ylamino)-5-fluoro-2-methylphenyl)piperidin-1-yl)pyrrolidine-1-carboxylate]	67 nM
Cc1cc(Nc2nc(Nc3cc(C)c(C4CCN(Cc5noc(C)n5)CC4)cc3F)ncc2Cl)n[nH]1 [Compound 292, 5-chloro-N2-(2-fluoro-5-methyl-4-(1-((5-methyl-1,2,4-oxadiazol-3-yl)methyl)piperidin-4-yl)phenyl)-N4-(5-methyl-1H-pyrazol-3-yl)pyrimidine-2,4-diamine]	23 nM
Cc1noc(CN2CCC(c3cc(F)c(Nc4ncc(Cl)c(Nc5cc(C)[nH]n5)n4)cc3C)CC2)n1 [Compound 293, 5-chloro-N2-(2-fluoro-5-methyl-4-(1-((3-methyl-1,2,4-oxadiazol-5-yl)methyl)piperidin-4-yl)phenyl)-N4-(5-methyl-1H-pyrazol-3-yl)pyrimidine-2,4-diamine]	26 nM
Cc1cc(Nc2nc(Nc3cc(C)c(C4CC[N+]([O-])(C5CCOCC5)CC4)cc3F)ncc2Cl)n[nH]1 (centres unmarked) [Compound 294, 4-(4-(5-chloro-4-(5-methyl-1H-pyrazol-3-ylamino)pyrimidin-2-ylamino)-5-fluoro-2-methylphenyl)-1-(tetrahydro-2H-pyran-4-yl)piperidine 1-oxide]	64 nM
Cc1cc(Nc2nc(Nc3cc(C)c(C4CC[N+]([O-])(C5CS(=O)(=O)C5)CC4)cc3F)ncc2Cl)n[nH]1 (centres unmarked) [Compound 295, 5-Chloro-N2-{4-[1-(1,1-dioxo-1λ6-thietan-3-yl)-1-oxide-piperidin-4-yl]-2-fluoro-5-methyl-phenyl}-N4-(5-ethyl-1H-pyrazol-3-yl)-pyrimidine-2,4-diamine]	39 nM
Cc1cc(Nc2nc(Nc3cc(C)c(C4CCN(C5CNC5)CC4)cc3F)ncc2Cl)n[nH]1 [Compound 296, N2-(4-(1-(azetidin-3-yl)piperidin-4-yl)-2-fluoro-5-methylphenyl)-5-chloro-N4-(5-methyl-1H-pyrazol-3-yl)pyrimidine-2,4-diamine]	101 nM
Cc1cc(Nc2nc(Nc3cc(C)c(C4CCN(Cc5cccnc5)CC4)cc3F)ncc2Cl)n[nH]1 [Compound 297, 5-chloro-N2-(2-fluoro-5-methyl-4-(1-(pyridin-3-ylmethyl)piperidin-4-yl)phenyl)-N4-(5-methyl-1H-pyrazol-3-yl)pyrimidine-2,4-diamine]	79 nM
Cc1cc(Nc2nc(Nc3cc(C)c(C4CCN(C5CCC(O)CC5)CC4)cc3F)ncc2Cl)n[nH]1 (centres unmarked) [Compound 298, 4-(4-(4-(5-chloro-4-(5-methyl-1H-pyrazol-3-ylamino)pyrimidin-2-ylamino)-5-fluoro-2-methylphenyl)piperidin-1-yl)cyclohexanol]	26 nM
Cc1cc(Nc2nc(Nc3cc(C)c(C4CCN(C5CCNC5)CC4)cc3F)ncc2Cl)n[nH]1 (centres unmarked) [Compound 299, 5-chloro-N2-(2-fluoro-5-methyl-4-(1-(pyrrolidin-3-yl)piperidin-4-yl)phenyl)-N4-(5-methyl-1H-pyrazol-3-yl)pyrimidine-2,4-diamine]	101 nM
Cc1cc(Nc2nc(Nc3cc(C)c(C4CCN(C5CN(S(C)(=O)=O)C5)CC4)cc3F)ncc2Cl)n[nH]1 [Compound 300, 5-chloro-N2-(2-fluoro-5-methyl-4-(1-(1-(methylsulfonyl)azetidin-3-yl)piperidin-4-yl)phenyl)-N4-(5-methyl-1H-pyrazol-3-yl)pyrimidine-2,4-diamine]	32 nM
